Results reported in US10059699B2, “Tetrahydroquinoline derivatives as bromodomain inhibitors” (GlaxoSmithKline Intellectual Property (No.2) Limited, priority 2014, dated 2018).
Read-outs that look alike come from different tables or passages of the source. Marks after values point to notes of the source that are not given here.

Experiments:
[1] = system: biphenotypic B myelomonocytic leukaemia cells (MV-4-11); assay: Cancer cell line proliferation assay, MV-4-11; assay type: cell-based; conditions: Homo sapiens, MV4-11, MV-4-11 cells, 72 hours, CellTiter Glo, n = 3
Procedure: (§1) The impact of the compound of Examples 7 and 14 on cancer cell proliferation was determined using patient derived NUT midline carcinoma cells (11060), multiple myeloma cells (OPM-2, DSMZ) and biphenotypic B myelomonocytic leukaemia cells (MV-4-11, ATCC) in a 72 hour proliferation assay. 11060 and OPM-2 cells were maintained in RPMI 1640 medium (Invitrogen) supplemented with 10% HI-FBS (Heat-Inactivated Fetal Bovine Serum, Hyclone) and 2 mM L-glutamine (Invitrogen) at 37° C. and an atmosphere of 5% CO2. MV-4-11 cells were maintained in IMDM media supplemented with 10% HI-FCS, 2 mM L-glutamine, 1× Non-essential amino acids (Invitrogen) and 1× sodium pyruvate (1 mM) (Invitrogen). Cells were diluted to 1.11×10^5 cells/mL and 90 μL/well plated into black sided, clear bottomed 96 well tissue culture plates (Corning), using growth media supplemented with penicillin/streptomycin (Invitrogen). Cells were incubated overnight at 37° C. and in one plate, ATP levels were measured using the CellTiter Glo assay (Promega) according to the manufacturer's instructions, to give a baseline reading (t=0). 3-fold serial dilutions of compounds ranging from 6 mM to 0.3 μM were prepared in 100% DMSO. The DMSO dilution series was diluted 20-fold in growth media before 10 μl of the resulting dilutions were added to the appropriate wells of the remaining cell plates. The final compound concentrations in the wells ranged from 30 μM to 1.5 nM in 0.5% DMSO. Cells were incubated with compounds for 72 hours before assaying for ATP content using CellTiter Glo (t=72). CellTiter Glo data from each t=72 time point was normalised to the relevant t=0 time point data, and expressed as % t=0.

[2] = system: NUT midline carcinoma cells (11060); assay: Cancer cell line proliferation assay, 11060; assay type: cell-based; conditions: 11060 cells, 72 hours, CellTiter Glo, n = 3
Procedure: as §1

[3] = system: NMC11060 cells; assay: Mouse xenograft tumour assay (NMC); assay type: in vivo; conditions: QD for 21 days, NOD/SCID mouse, day 21
Procedure: 1×10^7 NMC11060 cells, in 200 μl of 75% matrigel, were injected subcutaneously into each NOD/SCID mouse. Randomised oral administration of vehicle formulation, 1% Methycellulose (MC), or compound was initiated from the day tumour volume reached between 160-301 mm^3. Tumour volume was then measured every third day until either 21 days post inoculation or tumour volume had surpassed approximately 1000 mm^3.
Tumour growth inhibition=100−mean tumor volume of treatment group/mean tumour volume of control group×100. P values are derived from coefficient of variation analysis using software PASS 12, comparing vehicle against drug treated group. Based on day 21,* p<0.05, **p<0.01 and ***p<0.001

[4] = system: multiple myeloma cells (OPM-2); assay: Cancer cell line proliferation assay, OPM-2; assay type: cell-based; conditions: Homo sapiens, OPM-2 cells, 72 hours, CellTiter Glo, n = 2
Procedure: as §1

[5] = system: TNFα; assay: LPS induced secretion of TNFα from whole blood; assay type: cell-based; conditions: human whole blood, LPS 200 ng/mL, n=4; read-out: pIC50, LPS induced TNFα secretion (converted)
Excerpt: Activation in whole blood of predominantly monocytic cells by agonists of toll-like receptors such as bacterial lipopolysaccharide (LPS) results in production of key inflammatory mediators, including TNFα. Such pathways are widely considered to be central to the pathophysiology of a range of auto-immune and inflammatory disorders.
Human Whole Blood from 2 donors (n=2) is collected using Sodium heparin as anti-coagulent (Wockhardt cat# FP1712) (10 units of heparin/mL of blood). Compounds were prepared as [10 mM] DMSO stocks and then diluted such that the top starting concentration was [1.4 mM] followed by 8×3-fold dilutions in DMSO. Final assay concentrations start at [10 μM] for all compounds. 1 μL diluted compound was added per well in a 96-well U bottom plate. 1 μL DMSO only was added to column 10 (+ve control) and 1-((2S,4R)-2-methyl-4-(phenylamino)-6-(4-(piperidin-1-ylmethyl)phenyl)-3,4-dihydroquinolin-1(2H)-yl)ethanone (for a preparation see Compound 28, J. Med. Chem. 2014, 57, 8111-8131, 1 μL, 1.4 mM) added to column 11 (−ve control). […] 150 μL of 2×MSD Read Buffer T (stock 4×MSD Read Buffer T was diluted 50:50 with de-ionised water) was then added to each well and the plates read on the MSD Sector Imager 6000. Concentration response curves for each compound were generated from the data using internal XC50 analysis and an IC50 value was calculated.

[6] = molecular target: cytochrome P450 3A4 (Homo sapiens, UniProt P08684); assay: Cytochrome P450 3A4 metabolism dependent inhibition; assay type: in vitro ADME
Sequence of cytochrome P450 3A4 (P08684 whole entry): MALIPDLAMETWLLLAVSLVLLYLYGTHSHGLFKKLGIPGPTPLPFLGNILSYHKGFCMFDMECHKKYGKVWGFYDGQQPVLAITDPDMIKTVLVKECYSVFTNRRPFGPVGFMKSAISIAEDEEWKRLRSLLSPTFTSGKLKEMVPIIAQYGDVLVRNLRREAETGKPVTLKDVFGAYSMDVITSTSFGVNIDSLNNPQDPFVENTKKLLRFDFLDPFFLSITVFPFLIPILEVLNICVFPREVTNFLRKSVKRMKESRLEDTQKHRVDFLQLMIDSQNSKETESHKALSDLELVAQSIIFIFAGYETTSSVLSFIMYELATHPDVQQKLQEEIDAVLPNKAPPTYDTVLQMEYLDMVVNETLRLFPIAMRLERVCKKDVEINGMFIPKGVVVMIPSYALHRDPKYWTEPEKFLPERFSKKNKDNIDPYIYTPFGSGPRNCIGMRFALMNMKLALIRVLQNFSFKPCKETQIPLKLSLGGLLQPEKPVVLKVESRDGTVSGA

[7] = molecular target: hERG (Homo sapiens, UniProt Q12809); assay: hERG liability
Sequence of hERG (Q12809 whole entry): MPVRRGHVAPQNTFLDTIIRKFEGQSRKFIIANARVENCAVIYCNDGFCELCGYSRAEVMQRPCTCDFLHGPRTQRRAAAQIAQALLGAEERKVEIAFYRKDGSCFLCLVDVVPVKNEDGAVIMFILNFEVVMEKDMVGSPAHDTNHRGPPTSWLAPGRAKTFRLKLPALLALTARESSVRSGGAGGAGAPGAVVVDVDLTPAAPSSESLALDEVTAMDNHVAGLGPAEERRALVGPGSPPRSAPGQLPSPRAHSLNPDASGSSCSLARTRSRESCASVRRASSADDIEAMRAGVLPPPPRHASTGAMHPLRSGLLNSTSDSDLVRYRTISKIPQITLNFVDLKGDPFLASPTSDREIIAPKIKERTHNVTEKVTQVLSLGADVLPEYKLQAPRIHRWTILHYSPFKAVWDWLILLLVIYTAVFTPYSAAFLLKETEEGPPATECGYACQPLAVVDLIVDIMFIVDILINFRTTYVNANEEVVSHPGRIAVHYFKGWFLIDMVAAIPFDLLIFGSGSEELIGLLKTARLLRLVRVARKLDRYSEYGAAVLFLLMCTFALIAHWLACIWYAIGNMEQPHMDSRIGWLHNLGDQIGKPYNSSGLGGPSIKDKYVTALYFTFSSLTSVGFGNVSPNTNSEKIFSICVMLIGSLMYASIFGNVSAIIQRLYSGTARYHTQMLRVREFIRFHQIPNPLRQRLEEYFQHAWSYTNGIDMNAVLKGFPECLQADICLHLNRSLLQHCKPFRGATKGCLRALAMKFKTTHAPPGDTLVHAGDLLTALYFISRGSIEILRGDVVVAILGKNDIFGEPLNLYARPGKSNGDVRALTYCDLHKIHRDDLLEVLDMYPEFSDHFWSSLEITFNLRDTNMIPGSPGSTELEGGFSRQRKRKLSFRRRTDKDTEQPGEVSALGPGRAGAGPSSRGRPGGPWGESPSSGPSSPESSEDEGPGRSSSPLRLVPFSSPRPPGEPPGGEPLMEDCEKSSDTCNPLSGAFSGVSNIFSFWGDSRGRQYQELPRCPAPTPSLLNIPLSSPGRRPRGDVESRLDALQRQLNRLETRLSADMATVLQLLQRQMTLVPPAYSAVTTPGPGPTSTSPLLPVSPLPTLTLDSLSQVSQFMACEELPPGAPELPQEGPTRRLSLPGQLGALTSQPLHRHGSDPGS

[8] = full curve fit, read-out: Cellular Proliferation: pIC50 (converted)
[9] = read-out: Cellular Proliferation: gpIC50 (converted)

IC50 [1, 8]: 0.316 µM
IC50 [1, 9]: 0.251 µM
IC50 [2, 8]: 1 µM
IC50 [2, 9]: 0.631 µM
IC50 [4, 8]: 0.2 µM
IC50 [4, 9]: 0.126 µM
IC50 [5]: 0.0631 µM
Compound: CC(=O)N1c2ccc(C(N)=O)cc2[C@H](Nc2ncc(Cl)cn2)C[C@@H]1C [Example 14, (2S,4R)-1-acetyl-4-((5-chloropyrimidin-2-yl)amino)-2-methyl-1,2,3,4-tetrahydroquinoline-6-carboxamide]
% TGI ([3]; 10 mg/kg/day PO): 51* %
% TGI ([3]; 30 mg/kg/day PO): 93*** %
cytochrome P450 3A4 metabolism dependent inhibition [6]: no cytochrome P450 3A4 metabolism dependent inhibition
hERG liability [7]: no hERG liability
